Source: US10174380B2, “Methods for predicting multiple myeloma treatment response” (INSERM (INSTITUT NATIONAL DE LA SANTE ET DE LA RECHERCHE …, priority 2012, dated 2019)
Where “and” joins values, the source holds several entries; their conditions need not be identical. Equal values may be shown once. Read-outs that look alike come from different tables or passages of the source.

How the values were obtained:
Format in all cases: cell-based, human
[1] = test system: 5 HMCLs with low HA Score; experiment: Growth assay for myeloma cells (Cell Titer Glo, intracellular ATP), HMCLs with low HA Score; details: 4 days culture, read-out: median IC50
Protocol: (§1) Data are mean values plus or minus standard deviation (SD) of 5 experiments determined on sextuplet culture wells.
(§2) HMCLs were cultured for 4 days in 96-well flat-bottom microtiter plates in RPMI 1640 medium, 10% FCS, 2 ng/ml IL-6 culture medium (control), with graded Panobinostat (A), VPA […] or SAHA (C) concentrations. Data are mean values plus or minus standard deviation (SD) of 5 experiments determined on sextuplet culture wells.
(§3) Cell growth was evaluated by quantifying intracellular ATP amount with a Cell Titer Glo Luminescent Assay (Promega, Madison, Wis.) with a Centro LB 960 luminometer (Berthold Technologies, Bad Wildbad, Germany).
(§4) The inventors sought to determine whether HA Score could predict for the sensitivity of 10 HMCLs to HDAC inhibitor.
(§5) The inventors sought to determine whether HA Score could predict for the sensitivity of myeloma cells to clinical grade HDAC inhibitors {Neri, 2012 #3317}.

[2] = test system: 5 HMCLs with the highest HA Score; experiment: Growth assay for myeloma cells (Cell Titer Glo, intracellular ATP), HMCLs with high HA Score; details: 4 days culture, read-out: median IC50
Protocol: as §1, §2, §3, §4, §5

Five HMCLs = experiment: Cell viability of the five TSA treated HMCLs (summary statement); details: 0.33 μM TSA for 24 h
Protocol: (§6) The human MM cell lines XG-5, XG-6, XG-7, XG-20 and LP1 were grown in RPMI 1640 supplemented with 10% fetal bovine serum and 2 ng/mL recombinant IL-6. […] Control cells were cultured in the same conditions without TSA.
The prognostic information of HDACi regulated genes was gathered within an histone acetylation score (HA Score), which was the sum of the beta coefficients of the Cox model weighted by ±1 according to the patient MMC signal above or below the probe set maxstat value as described (34).

[3] = test system: primary MMCs of patients with low HA Score; experiment: Mononuclear cell culture, CD138+ viable plasma cell count, patients with low HA Score; details: day 4; for Myeloma cell number/culture well: individual patients with low HA Score; for Myeloma cell number/culture well, Mean: mean of 5 patients with low HA Score
Protocol: (§7) At day 4 of culture, the cell count and the viability were determined and the percentage of CD138^+ viable plasma cells was determined by flow cytometry. Black color represents patients with high HA Score (N=8) and white represents patients with low HA Score values (N=5).
(§8) In each culture group, viability and cell counts were assayed and MMCs were stained with an anti-CD138-PE mAb (Immunotech, Marseille, France) as previously described (35).
(§9) The characteristics of patients with MM included in this study are described in Table 3.

[4] = test system: primary MMCs of patients with high HA Score; experiment: Mononuclear cell culture, CD138+ viable plasma cell count, patients with high HA Score; details: day 4; for Myeloma cell number/culture well: individual patients with high HA Score; for Myeloma cell number/culture well, Mean: mean of 8 patients with high HA Score
Protocol: as §7, §8, §9

LP1 = experiment: Cell viability by trypan blue exclusion; details: 0.33 μM TSA, 24 h (Day 1), mean ± SD, 3 experiments
Protocol: as §6

XG-20 = experiment: Cell viability by trypan blue exclusion; details: 0.33 μM TSA, 24 h (Day 1), mean ± SD, 3 experiments
Protocol: as §6

XG-6 = experiment: Cell viability by trypan blue exclusion; details: 0.33 μM TSA, 24 h (Day 1), mean ± SD, 3 experiments
Protocol: as §6

XG-7 = experiment: Cell viability by trypan blue exclusion; details: 0.33 μM TSA, 24 h (Day 1), mean ± SD, 3 experiments
Protocol: as §6

XG-5 = experiment: Cell viability by trypan blue exclusion; details: 0.33 μM TSA, 24 h (Day 1), mean ± SD, 3 experiments
Protocol: as §6

[5] = Homo sapiens, 96 h, IL-6 2 ng/ml

Cc1[nH]c2ccccc2c1CCNCc1ccc(/C=C/C(=O)NO)cc1 [Panobinostat, panobinostat]
IC50 [1, 5]: 3.16 nM
IC50 [2, 5]: 1.16 nM

CC(/C=C/C(=O)NO)=C\[C@@H](C)C(=O)c1ccc(N(C)C)cc1 [TSA, trichostatin A]
IC50 ([1]; IL-6 2 ng/ml): 52.3 nM
IC50 ([2]; IL-6 2 ng/ml): 11 nM
effect on myeloma cell viability (Five HMCLs): did not affect myeloma cell viability
Myeloma cell number/culture well ([3]; 5.1 nM TSA): 72200 and 60648 and 14750 and 306768 and 19100
Myeloma cell number/culture well, Mean ([3]; 5.1 nM TSA): 94693
Myeloma cell number/culture well ([3]; 10.3 nM TSA): 64998 and 62172 and 18486 and 254478 and 19458
Myeloma cell number/culture well, Mean ([3]; 10.3 nM TSA): 83918
Myeloma cell number/culture well ([3]; 20.7 nM TSA): 54912 and 41184 and 14328 and 243978 and 18168
Myeloma cell number/culture well, Mean ([3]; 20.7 nM TSA): 74514
Myeloma cell number/culture well ([3]; 41.3 nM TSA): 33350 and 26100 and 12765 and 235040 and 18876
Myeloma cell number/culture well, Mean ([3]; 41.3 nM TSA): 65226
Myeloma cell number/culture well ([4]; 5.1 nM TSA): 43320 and 115520 and 72200 and 83752 and 19950 and 37544 and 48249 and 78844
Myeloma cell number/culture well, Mean ([4]; 5.1 nM TSA): 62422
Myeloma cell number/culture well ([4]; 10.3 nM TSA): 31086 and 45216 and 50868 and 25434 and 12170 and 33912 and 38249 and 41860
Myeloma cell number/culture well, Mean ([4]; 10.3 nM TSA): 34849
Myeloma cell number/culture well ([4]; 20.7 nM TSA): 22880 and 20592 (2×) and 38896 and 7650 and 18304 and 29064 and 32752
Myeloma cell number/culture well, Mean ([4]; 20.7 nM TSA): 23841
Myeloma cell number/culture well ([4]; 41.3 nM TSA): 7250 (2×) and 29000 and 18850 and 11600 and 1736 and 5238 and 29790
Myeloma cell number/culture well, Mean ([4]; 41.3 nM TSA): 13839
Cell viability (%) (LP1): 100 ± 0%
Cell viability (%) (XG-20): 100 ± 1%
Cell viability (%) (XG-6): 100 ± 1%
Cell viability (%) (XG-7): 100 ± 0%
Cell viability (%) (XG-5): 70 ± 3%

CCCC(CCC)C(=O)O [VPA, valproic acid]
IC50 ([1]; Homo sapiens, 96 h): 430 nM
IC50 ([2]; Homo sapiens, 96 h): 280 nM
